One may read the melting point as the temperature, or range, at which the solid turns liquid.

We go through 84 compounds from a melting point compilation (Tetko et al.; mined from patent text by program, amines drawn as free bases though some values may be those of a salt).

Compound `CCNC(=O)Nc1cc(-c2c(-c3ccc(F)c(C)c3)nc3cc(C(C)(C)C)c(Cl)nn23)ccn1` gave a melting point of 246 to 247 °C.

As for `O=C1NCC(CN2C(=O)C3(COc4cc5c(cc43)OCO5)c3ccccc32)O1` (centres undefined), the melting point lay within 195 to 202 °C.

As to `c1ccc2cc3[nH]c(SCc4ncc[nH]4)nc3cc2c1`, the melting point stood at 172 °C.

As to `CCOC(=O)C(Cc1ccc(NCc2ccc3cc(OS(C)(=O)=O)ccc3c2)cc1)OC` (centres undefined), the melting point lay within 94 to 96 °C.

On to `CCCNC(=O)[C@H](CSCc1ccccc1)NC(=O)c1cc2cccc(NS(=O)(=O)c3cccs3)c2[nH]1`, for which the melting point lay within 124 to 125 °C.

Take `O=S(=O)(c1ccccc1)c1cnc2c(N3CCNCC3)cccc2c1`: the melting point was 164 °C.

As for `COC(=O)CCC(=O)c1cc2c(s1)CCc1ccccc1C2=O`, the melting point was in the range of 97 to 98 °C.

`Cc1nnsc1C(=O)Nc1ccc(-n2nc(C(F)(F)F)cc2C2CC2)cc1` gave a melting point of 84 to 89 °C.

For `COc1cccc2c1C(=O)c1sc(-c3ccccc3)nc1C2=O`, the melting point was greater than 260 °C.

As to `COC(=O)c1c(C=O)cccc1Oc1nc(OC)cc(OC)n1`, the melting point lay within 91 to 93 °C.

Take `O=C1NCN(c2ccccc2)C12CCN(CC1=Cc3cc(Cl)ccc3CC1)CC2`: the melting point fell in the range of 191 to 192 °C.

Consider `CCN(C)C(=O)c1cc(C)c(C(c2cc(F)ccc2F)S(=O)(=O)c2ccc(F)cc2)cn1` (centres undefined), for which the melting point lay in the range of 165 to 167 °C.

In turn, `O=C1NC(=O)c2ccc(-c3ccc(F)cc3)cc2/C1=C/Nc1ccc(CN2CCCC2)cc1` had a melting point of 152 to 153 °C.

Take `CC1(C)CCC(C)(C)c2cc(C#Cc3ccc(C(N)=O)cc3)ccc21`: the melting point was in the range of 220 to 223 °C.

In the case of `CC(C)(C)N=NC(C)(C#N)COC(=O)c1ccccc1` (centres undefined), the melting point was in the range of 57 to 59 °C.

Compound `COc1cc(O)c(C=O)cc1C(C)(C)C` returned a melting point of 75 to 78 °C.

As to `CC(C)c1ccc(S(=O)(=O)n2c(Cc3ccc(C(=O)O)cc3)cc3cc(C(F)(F)F)ccc32)cc1`, the melting point turned out to be 227 °C.

`COC(=O)NNC(=O)c1cc(OC)c(OC)c(OC)c1` registered a melting point of 145 °C.

As for `N#Cc1ccc(N2C(=O)C=C(O)C2Cc2ccccc2)cc1Cl` (centres undefined), the melting point lay in the range of 188 to 189 °C.

`CN1C(=O)C2(COc3cc4c(cc32)OCCO4)c2c(C(=O)NCc3ccc(F)cc3)cccc21` (centres undefined) registered a melting point of 149 to 150 °C.

`CCOc1c(C(F)(F)F)ncn(-c2c(Cl)cc(C(F)(F)F)cc2[N+](=O)[O-])c1=O`: the melting point fell in the range of 97.5 to 100 °C.

Regarding `CC(C)c1[nH]n(-c2c(Cl)cc(Cl)cc2Cl)c2nc(C(O)c3ccccc3)nc(=O)c1-2` (centres undefined), the melting point lay in the range of 246 to 248 °C.

`CNc1nc(NCc2ccc(NC(=O)c3ccc(F)cc3)cc2)c2c(C)cccc2n1` gave a melting point of 228 to 230 °C.

Compound `CCOC(=O)C1=C(COC)NC(COC)=C(C(=O)OCC)C1c1ccccc1C(F)(F)F` had a melting point of 133 to 134 °C.

Turning to `O=C1CCC(N2C(=O)c3cccc(OCc4ccccc4)c3C2=O)C(=O)N1` (centres undefined), the melting point was 238 to 240 °C.

Compound `CC1(C)OC(=O)Nc2c(F)cc(-c3csc(C#N)c3)cc21` came in with a melting point of 250 to 251 °C.

As for `CCc1cc(OCc2ccc(-c3ccccc3-c3nnnn3-c3ccc(C#N)cc3)cc2)c2ccccc2n1`, the melting point lay in the range of 165 to 166 °C.

As for `CC(C)c1cccc(CCC(O)CC2CCCCC2)c1NC(=O)CC1c2ccccc2Oc2ccccc21` (centres undefined), the melting point came to 148 °C.

Consider `CCCCOc1cc2ncnc(N3CCc4ccc(Cl)cc43)c2cc1OC`, for which the melting point lay in the range of 126 to 132 °C.

As for `CCc1cn(C2CC(O)C(CNCc3ccccc3Br)O2)c(=O)[nH]c1=O` (centres undefined), the melting point was in the range of 144 to 146 °C.

Compound `CN(C)N=Nc1cc(-c2ccccc2)sc1C(N)=O` returned a melting point of 220 to 222 °C.

As to `CCCCCCc1ccc(-n2c(-c3ccc(C)cc3)cc(Br)c2-c2ccc(C)cc2)cc1`, the melting point is 134 to 135 °C.

With `CC(=O)N(CCCc1ccccc1)[C@H]1CC[C@H](c2ccc(OCc3ccccc3)cc2)CC1`, the melting point lay within 80 to 81.5 °C.

For `O=C(CCCCCl)c1ccc2c(c1)Cc1cc(C(=O)CCCCCl)ccc1S2`, the melting point lay in the range of 85 to 86.5 °C.

`COc1ccc(C(=O)Nc2ccc(F)cc2)cc1NS(=O)(=O)c1ccc(C#N)cc1` had a melting point of 131 to 135 °C.

In the case of `CCOC(=O)CNc1nc(Cl)nc(Cl)n1`, the melting point fell in the range of 82 to 87 °C.

With `COc1ccc(NC(=O)c2ccc(F)c(F)c2)cc1NS(=O)(=O)c1ccc(C#N)cc1`, the melting point fell in the range of 255 to 257 °C.

Take `Oc1ccc(-c2nnc(-c3cccc(-c4nnc(-c5ccc(O)cc5)o4)c3)o2)cc1`: the melting point is greater than 400 °C.

In turn, `O=C(Cc1cccc(OC(F)(F)F)c1)NCc1cccc2c1C(=O)N(C1CCC(=O)NC1=O)C2=O` (centres undefined) registered a melting point of 178 to 180 °C.

Regarding `CCN(CC)c1cccc2nc3n(c12)CC(F)(F)CN3c1ccc(Cl)cc1Cl`, the melting point is 125 to 127 °C.

In turn, `CCOC(=O)Cn1cc(C#N)nn1` had a melting point of 47 to 48 °C.

On to `CCCCCCCCCCCCCCCc1ccc2c(c1)C1(O)C(=O)c3ccccc3C1(O)O2` (centres undefined), for which the melting point was in the range of 105 to 110 °C.

Regarding `C=CCn1c(NCCOc2ccccc2)nc(N2CCc3ccccc3CC2)c(C#N)c1=O`, the melting point was in the range of 157 to 160 °C.

`COc1cc2c(cc1OC)C(=O)CS[C@@H](C(=O)O)C2` had a melting point of 223 to 224 °C.

Turning to `CN(C)c1ccc(NC(=O)N(Cc2ccco2)C[C@H]2CC[C@H](CN(Cc3ccco3)C(=O)Nc3ccc(N(C)C)cc3)CC2)cc1`, the melting point is 129 to 132 °C.

On to `O=C(CNS(=O)(=O)c1ccccc1)c1ccc(OCc2ccccc2)cc1`, for which the melting point fell in the range of 148 to 149 °C.

In turn, `O=C(Nc1ccc(C(F)(F)F)cc1)C(=O)N1CCC(Cc2ccc(F)cc2)CC1` registered a melting point of 109 to 111 °C.

The compound `CCCn1cc(Cc2ccc(C(=O)NS(=O)(=O)c3ccccc3C)cc2OC)c2cc(CCCC(=O)N(C)C)ccc21` had a melting point of 94 to 96 °C.

With `O=c1[nH]c2cc(Cl)c(Cl)cc2cc1P(=O)(O)O`, the melting point is greater than 300 °C.

In turn, `O=C(NCc1ccccn1)c1cc2ccnc(Cl)c2[nH]1` yielded a melting point of 177 to 183 °C.

`CCOC(=O)c1cn(NCC=O)c2c(OCc3ccccc3)c(F)c(F)cc2c1=O` returned a melting point of 180 to 181 °C.

`COC(=O)C1=C(C)Nc2ccccc2N(C(C)=O)C1c1cccc([N+](=O)[O-])c1` (centres undefined) yielded a melting point of 231 to 232 °C.

For the compound `COc1ccc(CSc2nc3cnccc3[nH]2)cc1C`, the melting point was in the range of 158 to 159 °C.

`CN1C(=O)C2CC(c3ccc(N)cc3)(C2)C1=O` gave a melting point of 197 to 198 °C.

`CN1C(C)(C)CC2(CC1(C)C)NC(=O)N(CC(O)COC(=O)CCCCC(=O)OCC(O)CN1C(=O)NC3(CC(C)(C)N(C)C(C)(C)C3)C1=O)C2=O` (centres undefined) had a melting point of 180 to 184 °C.

In turn, `CCN1C(=O)CC(=O)N(c2ccccc2)c2cc(Cl)ccc21` registered a melting point of 220 to 222 °C.

Take `Cc1ccc(S(=O)(=O)CNCC(CS(=O)(=O)c2ccccc2Oc2ccc(OC(F)(F)F)cc2)N(O)C=O)cc1` (centres undefined): the melting point lay in the range of 161 to 162 °C.

For the compound `CC1(C)Cc2cc(O)c3c(c2C(c2ccccc2)=N1)CC(C)(C)O3`, the melting point lay within 208 to 210 °C.

Consider `CCc1[nH]c2cc(F)ccc2c1C1=CCNCC1`, for which the melting point lay within 194 to 196 °C.

The compound `CC(CF)(CF)n1cc(C(=O)O)c(=O)c2cc(F)c(N3C[C@@H]4NCCO[C@@H]4C3)cc21` registered a melting point greater than 250 °C.

With `Clc1ccc(CN2CC=C(C=Cc3ccsc3)CC2)cc1`, the melting point fell in the range of 125 to 127 °C.

With `COc1cc(OC)c2c(=O)nc(-c3cc(C)c(O)c(C)c3)n(C)c2c1`, the melting point lay within 188 to 189 °C.

The compound `O=Cc1c(Cl)nc(-c2ccccc2)n1Cc1ccccc1` displayed a melting point of 117 to 118 °C.

For the compound `O=C(c1ccc(F)cc1)N1CCCC(c2nc(-c3cccc(F)c3)no2)C1` (centres undefined), the melting point fell in the range of 86 to 89 °C.

`CC(C)(CCCOc1ccccc1)C(=O)O`: the melting point lay in the range of 151 to 152 °C.

`C=C(C)C(=O)OCCCOc1ccc2cc(OC(=O)C(=C)C)ccc2c1` registered a melting point of 68 °C.

Turning to `Cc1cc(O)c2c(c1)CCC2`, the melting point lay in the range of 82 to 83 °C.

In the case of `CC(C)(C)c1ccc(Sc2ccsc2CN(O)C(N)=O)cc1`, the melting point lay in the range of 144 to 146 °C.

Consider `N#Cc1c(-c2ccccc2)c(-c2ccccc2)nn(CCC(=O)NCC(=O)O)c1=O`, for which the melting point is 113 to 115 °C.

In the case of `COC(CN(C)C(=O)Nc1nnc(C(C)Oc2ccccc2Cl)s1)OC` (centres undefined), the melting point fell in the range of 101 to 104 °C.

Compound `Cc1cccc(C)c1C(=O)n1cc(F)c(N=CN(C)C)nc1=O` displayed a melting point of 120 to 150 °C.

In turn, `CN1CCN(C(=O)c2ccc(Nc3cc(NC(=O)Nc4c(Cl)cc(Cl)cc4Cl)ncn3)cc2)CC1` returned a melting point of 165 to 175 °C.

As to `COc1ccccc1N1CCN(CCc2ccc3[nH]c(=O)oc3c2)CC1`, the melting point is 182 to 184 °C.

As to `COc1ccc(OC)c(C(=O)CC(O)C(=O)O)c1` (centres undefined), the melting point turned out to be 89 °C.

In turn, `CCc1sc2c(c1S(=O)(=O)c1ccc(OCCCN(C)C(C)c3ccc(OC)c(OC)c3)cc1)CN(Cc1ccccc1Cl)CC2` (centres undefined) displayed a melting point of 110 °C.

On to `NCCNC(=O)Nc1ccccc1C(=O)NCC1CCN(C(c2ccccc2)c2ccccc2)CC1`, for which the melting point was in the range of 101 to 103 °C.

For the compound `Nc1ccc2nc(-c3ccccc3)sc2c1`, the melting point lay within 200 to 201 °C.

As to `NC(=O)c1sc2ncnc(-c3cccc(NC(=O)Nc4cccnc4)c3)c2c1N`, the melting point is 199 to 200 °C.

In turn, `CC(C)c1cc(C(C)C)c(CC(=O)NS(=O)(=O)Oc2c(C(C)C)cc(SC#N)cc2C(C)C)c(C(C)C)c1` registered a melting point of 164 to 165 °C.

The compound `CCOC(=O)C1=C(C)NC(=O)N(C(=O)CC)C1c1cccc([N+](=O)[O-])c1` (centres undefined) registered a melting point of 152 to 154 °C.

Take `C=C(C)Cn1c(C)c(C)c2cnnc(OCc3ccc(F)cc3)c21`: the melting point fell in the range of 118 to 120 °C.

Regarding `COC(=O)C(=O)c1ccc(OCCOc2cccc(F)c2)cc1`, the melting point fell in the range of 68 to 69 °C.

Compound `O=C(O)c1cc(Cl)nn2nnnc12` yielded a melting point of 225 °C.

As to `CCOCc1nc2c(N)nc3ccc(O)cc3c2n1CCCCN(C(N)=O)c1ccccc1`, the melting point was 218 to 221 °C.
